The supplement of paper PMC10627819

What was measured:
S. aureus Newman = assay: fitness (endpoint OD595 vs no drug) (fraction); higher = more growth
Procedure, shortened: (§1)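 With the first reading as background, OD595 was measured every 30 min for 14 h in 384-well plates kept at 37 °C and inoculated at OD595 0.01. TSB, LB Lennox or CY was the medium. Fitness is the optical density at the transition into stationary phase divided by the robust mean of no-drug control wells, with a cap of 1.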

S. pneumoniae D39V = assay: as above
Procedure, shortened: as §1
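Further: OD595 on entry to stationary phase over no-drug wells; at most 1.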

CC1(C)S[C@@H]2[C@H](NC(=O)Cc3ccccc3)C(=O)N2[C@H]1C(=O)O [Penicillin G] + CCN(CC)CCOC(=O)c1ccc(N)cc1 [Procaine]
fitness, S. aureus Newman
Conditions | first compound 0.0195 µg/mL | first compound 0.039 µg/mL | first compound 0.078 µg/mL
partner 85.5 µg/mL | 0.899 | 0.943 | 0.947
partner 171 µg/mL | 0.876 | 0.925 | 0.977
partner 342 µg/mL | 0.876 | 0.914 | 0.952

CC1(C)S[C@@H]2[C@H](NC(=O)Cc3ccccc3)C(=O)N2[C@H]1C(=O)O [Penicillin G] + CN1C2=CC=CC=C2N=C3C1=CC=CC3=O [Pyocyanin]
fitness, S. aureus Newman
Conditions | first compound 0.0195 µg/mL | first compound 0.039 µg/mL | first compound 0.078 µg/mL
partner 1.25 µg/mL | 0.807 | 0.831 | 0.801
partner 2.5 µg/mL | 0.783 | 0.744 | 0.707
partner 5 µg/mL | 0.434 | 0.334 | 0.302

CC1(C)S[C@@H]2[C@H](NC(=O)Cc3ccccc3)C(=O)N2[C@H]1C(=O)O [Penicillin G] + CN(C)c1cc(NC(=O)CNC(C)(C)C)c(O)c2c1C[C@H]1C[C@H]3[C@H](N(C)C)C(O)=C(C(N)=O)C(=O)[C@@]3(O)C(O)=C1C2=O [Tigecycline]
fitness, S. aureus Newman
Conditions | first compound 0.0195 µg/mL | first compound 0.039 µg/mL | first compound 0.078 µg/mL
partner 0.039 µg/mL | 0.879 | 0.879 | 0.864
partner 0.078 µg/mL | 0.898 | 0.919 | 0.913
partner 0.156 µg/mL | 0.904 | 0.924 | 0.913

CC1(C)S[C@@H]2[C@H](NC(=O)Cc3ccccc3)C(=O)N2[C@H]1C(=O)O [Penicillin G] + CN(N=O)C(=O)N[C@@H](C=O)[C@@H](O)[C@H](O)[C@H](O)CO [Streptozotocin]
fitness, S. aureus Newman
Conditions | first compound 0.0195 µg/mL | first compound 0.039 µg/mL | first compound 0.078 µg/mL
partner 0.15 µg/mL | 0.759 | 0.731 | 0.709
partner 0.3 µg/mL | 0.623 | 0.627 | 0.621
partner 0.6 µg/mL | 0.501 | 0.486 | 0.493

CC1(C)S[C@@H]2[C@H](NC(=O)Cc3ccccc3)C(=O)N2[C@H]1C(=O)O [Penicillin G] + CN[C@@H]1[C@H](O)[C@H](NC)[C@H]2O[C@@]3(O)C(=O)C[C@@H](C)O[C@H]3O[C@@H]2[C@H]1O [Spectinomycin]
fitness, S. aureus Newman
Conditions | first compound 0.0195 µg/mL | first compound 0.039 µg/mL | first compound 0.078 µg/mL
partner 4 µg/mL | 0.857 | 0.848 | 0.817
partner 8 µg/mL | 0.852 | 0.857 | 0.828
partner 16 µg/mL | 0.844 | 0.806 | 0.802

fitness, S. aureus Newman, one replicate
Conditions | first compound 0.0195 µg/mL | first compound 0.039 µg/mL | first compound 0.078 µg/mL
partner 32 µg/mL | 0.462 | 0.35 | 0.272
partner 64 µg/mL | 0.0086 | 0.0192 | 0.0551

CC1(C)S[C@@H]2[C@H](NC(=O)Cc3ccccc3)C(=O)N2[C@H]1C(=O)O [Penicillin G] + CN[C@@H]1[C@H](O[C@H]2[C@H](O[C@H]3[C@H](O)[C@@H](O)[C@H](N=C(N)N)[C@@H](O)[C@@H]3N=C(N)N)O[C@@H](C)[C@]2(O)C=O)O[C@@H](CO)[C@H](O)[C@H]1O [Streptomycin]
fitness, S. aureus Newman
Conditions | first compound 0.0195 µg/mL | first compound 0.039 µg/mL | first compound 0.078 µg/mL
partner 1 µg/mL | 0.903 | 0.878 | 0.887
partner 2 µg/mL | 0.829 | 0.865 | 0.863

CC1(C)S[C@@H]2[C@H](NC(=O)Cc3ccccc3)C(=O)N2[C@H]1C(=O)O [Penicillin G] + CN[C@H](CC(C)C)C(=O)N[C@H]1C(=O)N[C@@H](CC(N)=O)C(=O)N[C@H]2C(=O)N[C@H]3C(=O)N[C@H](C(=O)N[C@H](C(=O)O)c4cc(O)cc(O)c4-c4cc3ccc4O)[C@H](O)c3ccc(c(Cl)c3)Oc3cc2cc(c3O[C@@H]2O[C@H](CO)[C@@H](O)[C@H](O)[C@H]2O[C@H]2C[C@](C)(N)[C@H](O)[C@H](C)O2)Oc2ccc(cc2Cl)[C@H]1O [Vancomycin]
fitness, S. aureus Newman
Conditions | first compound 0.0195 µg/mL | first compound 0.039 µg/mL | first compound 0.078 µg/mL
partner 0.1875 µg/mL | 0.895 | 0.885 | 0.907
partner 0.375 µg/mL | 0.918 | – | 0.926
partner 0.75 µg/mL | 0.884 | – | 0.88

CC1(C)S[C@@H]2[C@H](NC(=O)Cc3ccccc3)C(=O)N2[C@H]1C(=O)O [Penicillin G] + COc1ccc(C[C@H](N)C(=O)N[C@H]2[C@@H](O)[C@H](n3cnc4c(N(C)C)ncnc43)O[C@@H]2CO)cc1 [Puromycin]
fitness, S. aureus Newman
Conditions | first compound 0.0195 µg/mL | first compound 0.039 µg/mL | first compound 0.078 µg/mL
partner 0.39 µg/mL | 0.879 | 0.933 | 0.909
partner 0.78 µg/mL | 0.914 | 0.935 | 0.868
partner 1.56 µg/mL | 0.929 | 0.941 | 0.961

CC1(C)S[C@@H]2[C@H](NC(=O)Cc3ccccc3)C(=O)N2[C@H]1C(=O)O [Penicillin G] + C[n+]1ccc(-c2cc[n+](C)cc2)cc1 [Paraquat]
fitness, S. aureus Newman
Conditions | first compound 0.0195 µg/mL | first compound 0.039 µg/mL | first compound 0.078 µg/mL
partner 1.25 µg/mL | 0.827 | 0.832 | 0.876
partner 2.5 µg/mL | 0.863 | 0.871 | 0.827
partner 5 µg/mL | 0.875 | 0.807 | 0.819

CC1(C)S[C@@H]2[C@H](NC(=O)Cc3ccccc3)C(=O)N2[C@H]1C(=O)O [Penicillin G] + Cc1cc(NS(=O)(=O)c2ccc(N)cc2)no1 [Sulfamethoxazol]
fitness, S. aureus Newman
Conditions | first compound 0.0195 µg/mL | first compound 0.039 µg/mL | first compound 0.078 µg/mL
partner 1 µg/mL | 0.929 | 0.912 | 0.888
partner 2 µg/mL | 0.957 | – | 0.879

S. aureus Newman, partner 8 µg/mL, one replicate
Conditions | fitness
first compound 0.0195 µg/mL | 0.859
first compound 0.039 µg/mL | 0.87
first compound 0.078 µg/mL | 0.882

CC1(C)S[C@@H]2[C@H](NC(=O)Cc3ccccc3)C(=O)N2[C@H]1C(=O)O [Penicillin G] + Cn1nnc(-c2ccc(-c3ccc(N4C[C@H](CO)OC4=O)cc3F)cn2)n1 [Tedizolid]
fitness, S. aureus Newman
Conditions | first compound 0.0195 µg/mL | first compound 0.039 µg/mL | first compound 0.078 µg/mL
partner 0.0625 µg/mL | 0.864 | 0.861 | 0.849
partner 0.125 µg/mL | 0.803 | – | 0.719
partner 0.25 µg/mL | 0.405 | 0.339 | 0.305

CN(C)c1cc(NC(=O)CNC(C)(C)C)c(O)c2c1C[C@H]1C[C@H]3[C@H](N(C)C)C(O)=C(C(N)=O)C(=O)[C@@]3(O)C(O)=C1C2=O [Tigecycline] + Cn1nnc(-c2ccc(-c3ccc(N4C[C@H](CO)OC4=O)cc3F)cn2)n1 [Tedizolid]
fitness
Conditions | partner 0.03125 µg/mL | partner 0.0625 µg/mL | partner 0.125 µg/mL | partner 0.25 µg/mL | partner 0.5 µg/mL
S. aureus Newman, first compound 0.039 µg/mL | – | 0.972 | – | – | –
S. aureus Newman, first compound 0.078 µg/mL | – | 0.941 | 0.844 | 0.469 | –
S. aureus Newman, first compound 0.156 µg/mL | – | 0.965 | – | 0.466 | –
S. pneumoniae D39V, first compound 0.65 µg/mL | 0.923 | 0.934 | 0.81 | 0.653 | 0.379
S. pneumoniae D39V, first compound 1.3 µg/mL | 0.911 | 0.903 | 0.791 | 0.658 | 0.353
S. pneumoniae D39V, first compound 2.6 µg/mL | 0.884 | 0.943 | 0.827 | 0.669 | 0.375
